Assay results taken from PubChem BioAssay AID1918940 (Molecular Pharmacology Branch, DTP, NCI, 2023).

System: NCI-H211 complex spheroid viability
Test: Anticancer human tumor NCI-H211 cell line growth inhibition [LSD1];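 note: luminescent viability read after seven days of drug exposure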;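 for viability, T/C: 100% = DMSO vehicle control viability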
Details: for IC50: curve of first compound; for viability, T/C: stronger effect = lower value
Source text: Multicellular complex tumor spheroid response to LSD1 Inhibitor Iadademstat in combination with a variety of drugs and investigational agents in selected tumor cell lines
The current study was undertaken to assess response to LSD1 inhibitors in combination with standard-of-care drugs and investigational agents in solid tumor complex spheroid models as well as in the K-562 leukemia. Complex spheroids include a stromal component modeled by human endothelial cells (HUVEC) and fibroblasts modeled by human mesenchymal stem cells (MSCs). The concentration ranges selected for each drug and investigational agent were based upon clinically achievable concentrations if the clinical Cmax of the agent was known.
Compounds. The drugs and investigational agents used in this study are listed on Table 1. All of the agents used, including staurosporine (NSC755774) and gemcitabine (NSC613327), were obtained from the Developmental Therapeutics Program, NCI. FDA-approved anticancer drugs are available from the NCI at http://dtp.nci.nih.gov/branches/dscb/oncology_drugset_explanation.html. Drugs and investigational agents were >95% pure by proton nuclear magnetic resonance (NMR) and liquid chromatography/mass spectrometry (LC/MS). Stock solutions were prepared at 400x in DMSO, stored at -70 degrees C, and diluted in fresh medium prior to their use. The final concentration of DMSO in cell culture wells never exceeded 0.25% (v/v). The FDA-approved anticancer drug set is available from the Developmental Therapeutics Program at https://dtp.cancer.gov/organization/dscb/obtaining/available_plates.htm. All drugs and investigational agents were tested over a range starting from a high concentration at or near the clinical Cmax and decreasing in half-log increments. If the clinical Cmax for an agent had not been determined, the highest concentration tested was 10 microM.
Cell Lines. The patient-derived cancer cell (PDC) lines: 292921-168-R-J2-PDC, K24384-001-R-PDC, and 521955-158-R2-J5-PDC pancreatic carcinomas, 556581-035-R-J1 ovarian carcinoma, 324938-238-R-J1-PDC, 855422-203-R-J1-PDC and 883617-216-R-J1-PDC urothelial bladder carcinomas, 743489-274-T-PDC renal cell carcinoma, 138582-R-J1 Merkel cell tumor, K60290-347-R-J1 and K57222-313-R-J1-PDC glioblastomas, 653999-131-R-J2-PDC, LG0703-F948-PDC, and 349418-098-R-PDC non-small cell lung carcinomas, 885512-296-R-J2-PDC, 171881-019-R-J1-PDC breast carcinomas and 186277-243-T-J2-PDC and 233499-124-R-J2-PDC colon carcinomas were obtained from the NCI Patient-Derived Models Repository (PDMR, https://pdmr.cancer.gov). The established cell lines NCI/ADR-RES (RRID:CVCL_14520 and OVCAR-5 (RRID:CVCL_1628) ovarian carcinomas, 786-O (RRID:CVCL_1051) and A498 (RRID:CVCL_A498) renal cell carcinoma, NCI-H211 (ATCC, cat. CRL-5824; RRID:CVCL_1529), NCI-H196 (ATCC, cat. CRL-5823, RRID:CVCL_1509), SW 1271 (ATCC, cat. CRL-2177, RRID:CVCL_1716) and NCI-H1876 (ATCC, cat. CRL-5902, RRID:CVCL_1503) small cell lung carcinomas, MDA-MB-231 (RRID:CVCL_0062) and MDA-MB-468 (RRID:CVCL_0419)breast carcinomas (10-12). Pooled donor human umbilical vein endothelial cells (HUVEC, Lonza, cat. CC-2519) and human mesenchymal stem cells (hMSC, Lonza, cat. PT-2501) were purchased from Lonza (Walkersville, MD).
Cell Culture. All cells were maintained in an incubator at 37 degrees C and 5% CO2 with 95% humidity. The PDC lines were cultured according to standard operating procedures established by the NCI PDMR (https://pdmr.cancer.gov). Briefly all PDCs were thawed and cultured in Matrigel-coated flasks prepared with a working solution of 1X Ham's F-12 nutrient mix, without supplementation (Invitrogen, Waltham, MA, cat. 11765054), 100 U/mL penicillin-streptomycin (Invitrogen, cat. 15140122), and 2.5% Matrigel (Corning Inc., Corning, NY, cat. 354248) for the first three passages. […]

[1] = second compound 0.1 µM, first compound 0.00316 µM
[2] = second compound 0.1 µM, first compound 0.01 µM
[3] = second compound 0.1 µM, first compound 0.0316 µM
[4] = second compound 0.1 µM, first compound 0.1 µM
[5] = second compound 0.316 µM, first compound 0.00316 µM
[6] = second compound 0.316 µM, first compound 0.01 µM
[7] = second compound 0.316 µM, first compound 0.0316 µM
[8] = second compound 0.316 µM, first compound 0.1 µM
[9] = second compound 1 µM, first compound 0.00316 µM
[10] = second compound 1 µM, first compound 0.01 µM
[11] = second compound 1 µM, first compound 0.0316 µM
[12] = second compound 1 µM, first compound 0.1 µM
[13] = second compound 3.16 µM, first compound 0.00316 µM
[14] = second compound 3.16 µM, first compound 0.01 µM
[15] = second compound 3.16 µM, first compound 0.0316 µM
[16] = second compound 3.16 µM, first compound 0.1 µM
[17] = second compound 10 µM, first compound 0.00316 µM
[18] = second compound 10 µM, first compound 0.01 µM
[19] = second compound 10 µM, first compound 0.0316 µM
[20] = second compound 10 µM, first compound 0.1 µM

CC[C@@]1(O)C(=O)OCc2c1cc1n(c2=O)Cc2cc3c(CN(C)C)c(O)ccc3nc2-1 + NC1CC1c1ccc(-c2cccc(O)c2)cc1
IC50 (second compound 0.1 µM): 0.472 nM | IC50 (second compound 0.316 µM): 0.4 nM | IC50 (second compound 1 µM): 0.333 nM | IC50 (second compound 3.16 µM): < 0.316 nM | IC50 (second compound 10 µM): < 0.316 nM | viability, T/C (second compound 0.1 µM, first compound 0.000316 µM): 69.9% | viability, T/C (second compound 0.1 µM, first compound 0.001 µM): 12.8% | viability, T/C [1]: 4.7% | viability, T/C [2]: 4.95% | viability, T/C [3]: 3.81% | viability, T/C [4]: 2.69% | viability, T/C (second compound 0.316 µM, first compound 0.000316 µM): 60% | viability, T/C (second compound 0.316 µM, first compound 0.001 µM): 12% | viability, T/C [5]: 6.18% | viability, T/C [6]: 4.37% | viability, T/C [7]: 4.53% | viability, T/C [8]: 2.25% | viability, T/C (second compound 1 µM, first compound 0.000316 µM): 51.9% | viability, T/C (second compound 1 µM, first compound 0.001 µM): 11.9% | viability, T/C [9]: 5.4% | viability, T/C [10]: 3.69% | viability, T/C [11]: 4.13% | viability, T/C [12]: 3.19% | viability, T/C (second compound 3.16 µM, first compound 0.000316 µM): 38.7% | viability, T/C (second compound 3.16 µM, first compound 0.001 µM): 11.8% | viability, T/C [13]: 5.33% | viability, T/C [14]: 5.16% | viability, T/C [15]: 5.02% | viability, T/C [16]: 2.67% | viability, T/C (second compound 10 µM, first compound 0.000316 µM): 44.5% | viability, T/C (second compound 10 µM, first compound 0.001 µM): 15.3% | viability, T/C [17]: 4.98% | viability, T/C [18]: 5.88% | viability, T/C [19]: 5.04% | viability, T/C [20]: 2.36%

COc1cc(C2c3cc4c(cc3C(OC3OC5COC(C)OC5C(O)C3O)C3COC(=O)C23)OCO4)cc(OC)c1O (stereo not given) + NC1CC1c1ccc(-c2cccc(O)c2)cc1
IC50 (second compound 0.1 µM): < 9.49 nM | IC50 (second compound 0.316 µM): < 9.49 nM | IC50 (second compound 1 µM): < 9.49 nM | IC50 (second compound 3.16 µM): < 9.49 nM | IC50 (second compound 10 µM): < 9.49 nM | viability, T/C (second compound 0.1 µM, first compound 0.00949 µM): 43.9% | viability, T/C (second compound 0.1 µM, first compound 0.03 µM): 11.5% | viability, T/C (second compound 0.1 µM, first compound 0.0949 µM): 4.34% | viability, T/C (second compound 0.1 µM, first compound 0.3 µM): 5.07% | viability, T/C (second compound 0.1 µM, first compound 0.949 µM): 5.27% | viability, T/C (second compound 0.1 µM, first compound 3 µM): 4.24% | viability, T/C (second compound 0.316 µM, first compound 0.00949 µM): 38.7% | viability, T/C (second compound 0.316 µM, first compound 0.03 µM): 11.5% | viability, T/C (second compound 0.316 µM, first compound 0.0949 µM): 4.54% | viability, T/C (second compound 0.316 µM, first compound 0.3 µM): 4.97% | viability, T/C (second compound 0.316 µM, first compound 0.949 µM): 4.77% | viability, T/C (second compound 0.316 µM, first compound 3 µM): 4.76% | viability, T/C (second compound 1 µM, first compound 0.00949 µM): 35.6% | viability, T/C (second compound 1 µM, first compound 0.03 µM): 10.3% | viability, T/C (second compound 1 µM, first compound 0.0949 µM): 6.12% | viability, T/C (second compound 1 µM, first compound 0.3 µM): 4.33% | viability, T/C (second compound 1 µM, first compound 0.949 µM): 3.45% | viability, T/C (second compound 1 µM, first compound 3 µM): 4.65% | viability, T/C (second compound 3.16 µM, first compound 0.00949 µM): 29.2% | viability, T/C (second compound 3.16 µM, first compound 0.03 µM): 7.68% | viability, T/C (second compound 3.16 µM, first compound 0.0949 µM): 5.57% | viability, T/C (second compound 3.16 µM, first compound 0.3 µM): 5.22% | viability, T/C (second compound 3.16 µM, first compound 0.949 µM): 5.76% | viability, T/C (second compound 3.16 µM, first compound 3 µM): 3.92% | viability, T/C (second compound 10 µM, first compound 0.00949 µM): 24.8% | viability, T/C (second compound 10 µM, first compound 0.03 µM): 9.09% | viability, T/C (second compound 10 µM, first compound 0.0949 µM): 5.19% | viability, T/C (second compound 10 µM, first compound 0.3 µM): 4.7% | viability, T/C (second compound 10 µM, first compound 0.949 µM): 5% | viability, T/C (second compound 10 µM, first compound 3 µM): 4.52%

Nc1ncn(C2CC(O)C(CO)O2)c(=O)n1 (stereo not given) + NC1CC1c1ccc(-c2cccc(O)c2)cc1
IC50 (second compound 0.1 µM): < 3.16 nM | IC50 (second compound 0.316 µM): < 3.16 nM | IC50 (second compound 1 µM): < 3.16 nM | IC50 (second compound 3.16 µM): < 3.16 nM | IC50 (second compound 10 µM): < 3.16 nM | viability, T/C [1]: 23.1% | viability, T/C [2]: 11.9% | viability, T/C [3]: 5.65% | viability, T/C [4]: 3.94% | viability, T/C (second compound 0.1 µM, first compound 0.316 µM): 3.2% | viability, T/C (second compound 0.1 µM, first compound 1 µM): 4.03% | viability, T/C [5]: 18.7% | viability, T/C [6]: 9.82% | viability, T/C [7]: 6.26% | viability, T/C [8]: 4.33% | viability, T/C (second compound 0.316 µM, first compound 0.316 µM): 3.7% | viability, T/C (second compound 0.316 µM, first compound 1 µM): 4.51% | viability, T/C [9]: 17.9% | viability, T/C [10]: 10.6% | viability, T/C [11]: 5.51% | viability, T/C [12]: 4% | viability, T/C (second compound 1 µM, first compound 0.316 µM): 4.16% | viability, T/C (second compound 1 µM, first compound 1 µM): 4.12% | viability, T/C [13]: 24.6% | viability, T/C [14]: 13.7% | viability, T/C [15]: 6.51% | viability, T/C [16]: 4.45% | viability, T/C (second compound 3.16 µM, first compound 0.316 µM): 3.03% | viability, T/C (second compound 3.16 µM, first compound 1 µM): 4.93% | viability, T/C [17]: 22.7% | viability, T/C [18]: 17.1% | viability, T/C [19]: 9.21% | viability, T/C [20]: 5.28% | viability, T/C (second compound 10 µM, first compound 0.316 µM): 3.35% | viability, T/C (second compound 10 µM, first compound 1 µM): 3.79%
